Measured values from patent US10722516B2, “Use of landiolol hydrochloride in the long-term treatment of tachyarrhythmias” (AOP Orphan Pharmaceuticals AG, priority 2013, dated 2020).
“Also recorded” adds a separate entry of the source. Where a name gives a salt, the structure may show the parent alone.

Tested on: healthy volunteers
Assay: 24 h long-term infusion study, AOP LDLL600 against esmolol: heart rate
Type: in vivo, human
Conditions: for heart rate: Table 1
Description: A single centre prospective, randomized, double blind, crossover, pharmacokinetic, safety and tolerability study to compare long-term infusion administration of AOP LDLL600 against esmolol in healthy volunteers was performed.
Landiolol hydrochloride lyophilized (LDLL600) comprises 600 mg landiolol hydrochloride, 600 mg mannitol, pH 6.5. The primary packing of LDLL600 is 50 ml vial, the reconstitution volume is 50 ml and the final product concentration is 12 mg/mL landiolol HCl.
12 subjects were administered AOP LDLL600 or Esmolol (Brevibloc, 2500 mg/250 ml) in 1:1 ratio in double-blind, randomized, cross-over setting. PK, systemic cardiovascular and local tolerability and safety of the 24 h-long term infusions of three dose levels of both IMPs during each treatment period were assessed.
Landiolol was infused over 24 h in a dose of 10 μg/KG/min (2 hrs), followed by 20 μg/KG/min (2 hrs), followed by 40 μg/KG/min for 20 hrs.
Dosing algorithm was body weight divided by 20, 10 and 5 in ml/h giving 10, 20 and 40 μg/KG/min at a concentration of 12 mg/ml. No severe adverse drug reactions, mild local reactions, 1 severe local reaction (Esmolol High Dose).
Landiolol was infused over 24 h in a dose of 10, 20 and 40 μg/KG/min, i.e. 10 μg/KG/min landiolol were administered for 2 hrs, followed by 2 hrs administration of 20 μg/KG/min and further followed by 20 hrs administration of 40 μg/KG/min.
Post-infusion follow up measurements were performed immediately after 20 hrs administration study, i.e. 2, 4 min etc. after stop of landiolol administration.

[1] = LD infusion (landiolol 10, esmolol 50 μg/kg/min), 3 min
[2] = LD infusion (landiolol 10, esmolol 50 μg/kg/min), 4 min
[3] = LD infusion (landiolol 10, esmolol 50 μg/kg/min), 6 min
[4] = LD infusion (landiolol 10, esmolol 50 μg/kg/min), 8 min
[5] = LD infusion (landiolol 10, esmolol 50 μg/kg/min), 12 min
[6] = LD infusion (landiolol 10, esmolol 50 μg/kg/min), 16 min
[7] = LD infusion (landiolol 10, esmolol 50 μg/kg/min), 20 min
[8] = LD infusion (landiolol 10, esmolol 50 μg/kg/min), 30 min
[9] = LD infusion (landiolol 10, esmolol 50 μg/kg/min), 60 min
[10] = LD infusion (landiolol 10, esmolol 50 μg/kg/min), 90 min
[11] = LD infusion (landiolol 10, esmolol 50 μg/kg/min), 2 h
[12] = MD infusion (landiolol 20, esmolol 100 μg/kg/min, after 2 h LD), 2 min
[13] = MD infusion (landiolol 20, esmolol 100 μg/kg/min, after 2 h LD), 3 min
[14] = MD infusion (landiolol 20, esmolol 100 μg/kg/min, after 2 h LD), 4 min
[15] = MD infusion (landiolol 20, esmolol 100 μg/kg/min, after 2 h LD), 6 min
[16] = MD infusion (landiolol 20, esmolol 100 μg/kg/min, after 2 h LD), 8 min
[17] = MD infusion (landiolol 20, esmolol 100 μg/kg/min, after 2 h LD), 16 min
[18] = MD infusion (landiolol 20, esmolol 100 μg/kg/min, after 2 h LD), 20 min
[19] = MD infusion (landiolol 20, esmolol 100 μg/kg/min, after 2 h LD), 30 min
[20] = MD infusion (landiolol 20, esmolol 100 μg/kg/min, after 2 h LD), 60 min
[21] = MD infusion (landiolol 20, esmolol 100 μg/kg/min, after 2 h LD), 90 min
[22] = MD infusion (landiolol 20, esmolol 100 μg/kg/min, after 2 h LD), 2 h

COC(=O)CCc1ccc(OCC(O)CNC(C)C)cc1 (stereo not drawn) [Esmolol, Esmolol hydrochloride]
heart rate, Mean (SD) (LD infusion (landiolol 10, esmolol 50 μg/kg/min), 2 min): 66.9 (6.28) beats per minute
change of heart rate from predose, Mean (SD) [1]: −1.9 (5.34) beats per minute
heart rate, Mean (SD) [1]: 65.7 (4.91) beats per minute
change of heart rate from predose, Mean (SD) [2]: −2.1 (7.64) beats per minute
heart rate, Mean (SD) [2]: 65.6 (6.44) beats per minute
change of heart rate from predose, Mean (SD) [3]: −1.6 (5.96) beats per minute
heart rate, Mean (SD) [3]: 66.0 (4.52) beats per minute
change of heart rate from predose, Mean (SD) [4]: −2.1 (7.05) beats per minute
heart rate, Mean (SD) [4]: 65.5 (4.35) beats per minute
change of heart rate from predose, Mean (SD) [5]: −2.4 (6.77) beats per minute
heart rate, Mean (SD) [5]: 65.2 (4.74) beats per minute
change of heart rate from predose, Mean (SD) [6]: −2.3 (7.58) beats per minute
heart rate, Mean (SD) [6]: 65.4 (5.51) beats per minute
change of heart rate from predose, Mean (SD) [7]: −2.0 (9.49) beats per minute
heart rate, Mean (SD) [7]: 65.6 (7.07) beats per minute
change of heart rate from predose, Mean (SD) [8]: −5.1 (6.29) beats per minute
heart rate, Mean (SD) [8]: 62.6 (5.05) beats per minute
change of heart rate from predose, Mean (SD) [9]: −4.1 (8.00) beats per minute
heart rate, Mean (SD) [9]: 63.6 (4.67) beats per minute
change of heart rate from predose, Mean (SD) [10]: −3.5 (6.55) beats per minute
heart rate, Mean (SD) [10]: 64.1 (4.99) beats per minute
change of heart rate from predose, Mean (SD) [11]: −3.9 (7.12) beats per minute
heart rate, Mean (SD) [11]: 63.8 (4.89) beats per minute
change of heart rate from predose, Mean (SD) (MD Predose (end of 2 h LD)): −3.9 (7.12) beats per minute
heart rate, Mean (SD) (MD Predose (end of 2 h LD)): 63.8 (4.89) beats per minute
change of heart rate from predose, Mean (SD) [12]: −4.3 (10.36) beats per minute
heart rate, Mean (SD) [12]: 63.4 (7.88) beats per minute
change of heart rate from predose, Mean (SD) [13]: −5.1 (8.40) beats per minute
heart rate, Mean (SD) [13]: 62.6 (5.50) beats per minute
change of heart rate from predose, Mean (SD) [14]: −2.7 (8.96) beats per minute
heart rate, Mean (SD) [14]: 64.9 (9.04) beats per minute
change of heart rate from predose, Mean (SD) [15]: −3.8 (7.45) beats per minute
heart rate, Mean (SD) [15]: 63.9 (5.10) beats per minute
change of heart rate from predose, Mean (SD) [16]: −5.6 (7.54) beats per minute
heart rate, Mean (SD) [16]: 62.1 (4.46) beats per minute
heart rate, Mean (SD) (MD infusion (landiolol 20, esmolol 100 μg/kg/min, after 2 h LD), 12 min): 61.8 (5.07) beats per minute
change of heart rate from predose, Mean (SD) [17]: −3.5 (7.14) beats per minute
heart rate, Mean (SD) [17]: 64.1 (5.02) beats per minute
change of heart rate from predose, Mean (SD) [18]: −5.0 (7.34) beats per minute
heart rate, Mean (SD) [18]: 62.6 (4.33) beats per minute
change of heart rate from predose, Mean (SD) [19]: −5.6 (8.20) beats per minute
heart rate, Mean (SD) [19]: 62.1 (5.00) beats per minute
change of heart rate from predose, Mean (SD) [20]: −1.4 (10.41) beats per minute
heart rate, Mean (SD) [20]: 66.2 (5.04) beats per minute
change of heart rate from predose, Mean (SD) [21]: −2.2 (8.59) beats per minute
heart rate, Mean (SD) [21]: 65.4 (6.17) beats per minute
change of heart rate from predose, Mean (SD) [22]: −3.9 (7.75) beats per minute
heart rate, Mean (SD) [22]: 63.7 (4.86) beats per minute
heart rate, Mean (SD) (Predose (before first IMP administration)): 67.6 (7.87) beats per minute
heart rate (Control (before administration)): 67 beats per minute
heart rate (high dose (landiolol 40, esmolol 200 μg/kg/min), time 720 min): 67.9 beats per minute
heart rate (high dose (landiolol 40, esmolol 200 μg/kg/min), time 1200 min): 67.9 beats per minute
heart rate (low dose (landiolol 10, esmolol 50 μg/kg/min), time 12 min): 65.2 beats per minute
heart rate (low dose (landiolol 10, esmolol 50 μg/kg/min), time 16 min): 65.4 beats per minute
heart rate (low dose (landiolol 10, esmolol 50 μg/kg/min), time 30 min): 62.6 beats per minute
heart rate (low dose (landiolol 10, esmolol 50 μg/kg/min), time 60 min): 63.6 beats per minute
heart rate (low dose (landiolol 10, esmolol 50 μg/kg/min), time 120 min): 63.8 beats per minute
heart rate (medium dose (landiolol 20, esmolol 100 μg/kg/min), time 240 min): 63.7 beats per minute
heart rate (time after administration 12 min (end at 1440 min)): 74.7 beats per minute
heart rate (time after administration 16 min): 74 beats per minute
heart rate (time after administration 30 min): 76.8 beats per minute
heart rate (time after administration 60 min): 73.1 beats per minute
heart rate (time after administration 120 min): 70.2 beats per minute
overshoot effect on heart rate (after termination of long term administration, hydrochloride): the heart rate and blood pressure raise immediately over control values; also recorded: significant tolerance and overshoot effect
additive effect of raising the dose (tolerance state) (esmolol MD, HD): does not provide any additive effect
heart rate effect during administration (long term administration): relative increase of the heart rate and blood pressure already after 60 minutes of administration
tolerance effect (long term administration): significant tolerance and overshoot effect
remark on heart rate response after infusion stop (remark column of Table 2, FU time points 20 h 6 min to 21 h): overshoot
remark on heart rate response during infusion (remark column of Table 2, time points MD 60 min to HD 20 h (end)): Tolerance state
